These results are taken from US5922557A, “System for stably expressing a high-affinity camp phosphodiesterase and use thereof” (Merck & Co., Inc., priority 1998, dated 1999).

In series [1] the test system is high-affinity rolipram binding site, rat forebrain membranes. The conditions noted are these: cited from earlier work.
Series [2] concerns PKA in CHO-K1 cells stably expressing PDE IVa. Briefly: Whole-cell cAMP dependent protein kinase (PKA) activity ratio. The series is classed as cell-based. The note with it: CHO-K1; with 1 μM PGI2; read-out: apparent EC50 to activate PKA. How it is done: PKA activity ratios were determined as the amount of ^32 P transferred to histone F2B in the presence and absence of cAMP as described in Materials and Methods. Data points represent the fractional PKA activation by incubating cells with the indicated concentrations of inhibitor and […]. Experiments were performed in triplicate. n=3 experiments±SD.
CHO-K1 cells were grown and resuspended as described above except that the Hank's buffer was replaced by a solution containing 0.25M sucrose; 10 mM Tris, pH 7.5; and 0.5 mM EDTA. The cells were preincubated and incubated with 1 μM PGI2 and the indicated compounds at room temperature as described above. The incubations were terminated by the addition of 0.05% Triton X-100 (final) and incubating the cells for 5 min on ice. […] This mixture (final volume 220 μl) was incubated in a waterbath for 30 min at 35° C. and terminated by adding 5 ml of ice cold 5% TCA. The precipatated protein was applied to a Whatman GF/B filter under vacuum and the filter was subsequently washed with 3×5 ml ice cold TCA solution. The amount of -32P incorporation was measured by placing the filters in Aquasol and counting in a BECKMAN LSC 5000. Basal cAMP independent protein kinase activity was determined by the inclusion of 1 μM Protein Kinase A Peptide Inhibitor (19) in the reaction mixture. Maximal cAMP protein kinase activity was determined in the presence of 10 μM cAMP. All determinations were performed in triplicate and activity ratios were calculated as the [(kinase activity in the presence of PDE inhibitor minus cAMP independent kinase activity)/(maximal cAMP kinase activity minus cAMP independent kinase activity)]×100.

In series [3] the test system is CHO-K1 cells stably expressing rhPDE IVa. The series is described as follows: cells. The series is classed as cell-based. The conditions noted are these: for effect of preincubation on sensitivity of the enzyme to inhibitors: whole-cell preparation, data not shown. How it is done:
Levels of cAMP were measured in CHO-K1 cells stably expressing PDE IVa enzyme as outlined in Materials and Methods.
CHO-K1 cells were plated at a density of 10^6 cells/175 cm^2 containing complete media with 500 μg/ml hygromycin. The flasks were maintained in an incubator at 37° C. with 5.0% CO2 for 72 hr. The media was changed and the cells were allowed to grow overnight. The cells were washed and dissociated from the plate with PBS containing 0.5 mM EDTA. Cellular cAMP content was measured by centrifuging the cell suspension at 150 g×10 min and resuspending the cells in a Hanks buffered salt solution at a density of 0.2×10^6 cells/ml. The cells were preincubated at room temperature for 15 min and then incubated with 10 μM prostaglandin I2 (PGI2) and the indicated compound for an additional 10 min. Basal cAMP levels were determined by incubating the cells in 0.1% DMSO. The incubations were terminated by the addition of HCl (0.1N final) and the cells measured for cAMP.
Determinations of whole-cell cAMP content were performed by incubating 100 μl reconstituted rabbit anti-succinyl cAMP serum with 100 μl of the whole-cell reaction or known cAMP standard and 30 pmol of 125I-cAMP TME in a […]™ well (300 μl final volume) at room temperature for 18 h. Total cpm (Bo) was determined in the absence of sample or cAMP standard. The reaction mixture was then aspirated out of the well, and individual wells were counted in a BECKMAN LS 6000SC with the window open from 10-999 for 1 min. The data were expressed as %B/Bo=[(standard or sample cpm--non-specific cpm)/(Bo cpm-non-specific cpm)]×100. Non-specific cpm were determined by incubating only the 125I-cAMP TME with assay buffer (50 mM acetate; pH 5.8) in the ScintiStrip™ well. All determinations were performed in triplicate.

Series [4] concerns the target T1, recombinant full-length human PDE IVa (rhPDEIVa) (Homo sapiens, UniProt P27815, M723I).
T1 construct: a cDNA insert encoding for a full-length human PDE IVa enzyme; made in house; host or cells: CHO-K1 cells, stably transfected (also expressing the prostanoid IP receptor); 100,000xg supernatant of the sonicate
The series is described as follows: Phosphodiesterase Scintillation Proximity Assay, inhibition of soluble rhPDE IVa (100,000×g supernatant of transfected CHO-K1 cells). The series is classed as biochemical. How it is done: Inhibition of soluble rhPDEIVa by specific inhibitors was examined at 100 nM substrate. Enzyme activity was determined as described in Materials and Methods using the Amersham SPA beads that specifically bind 5'AMP.
Inhibition of soluble rhPDEIVa by specific inhibitors was examined in the presence of 5 mM to 100 mM MgCl2. Enzyme activity was determined as described in Materials and Methods using the Amersham SPA beads that specifically bind 5'AMP in the presence of […] cAMP substrate.
On the technique in general: In a scintillation proximity assay essentially only radioactivity close to the scintillant gives light.

In series [5] the target is T1, recombinant full-length human PDE IVa (rhPDEIVa). The series is described as above. In kind it is biochemical. The note with it: broken-cell preparation; data not shown.
Series [6] can be described thus: Kinetic characterization of PDE IVa enzymes with cAMP as substrate. The series is classed as biochemical. Here is the method: PDE IVa activity was assayed in the 100,000×g supernatant obtained from sonicated CHO-K1 cells stably expressing the enzyme. The enzyme activity was assayed in duplicate at substrate concentrations ranging from 0.2 μM to 30 μM using the Amersham SPA beads as described in Materials and Methods. Shown are the saturation kinetics for the enzyme. The inset graph is a double-reciprocal plot of the kinetic data. Average of 3 separate experiments +/- SD .
Panel A. Shown are the saturation kinetics for the enzyme.PDE IVA activity was assayed in the 100,000×g supernatant obtained from sonicated CHO-K1 cells stably expressing the enzyme. The enzyme activity was assayed in duplicate at substrate concentrations ranging from 0.2 mM to 10 mM using the Amersham SPA beads as described in Materials and Methods. Average of 3 separate experiments +/- SEM . Panel B. Double-reciprocal replot of the averaged saturation data.

“Also recorded” adds a separate entry of the source. Like-named read-outs stand apart in the source and are kept apart here.

T1 sequence (P27815 whole entry M723I): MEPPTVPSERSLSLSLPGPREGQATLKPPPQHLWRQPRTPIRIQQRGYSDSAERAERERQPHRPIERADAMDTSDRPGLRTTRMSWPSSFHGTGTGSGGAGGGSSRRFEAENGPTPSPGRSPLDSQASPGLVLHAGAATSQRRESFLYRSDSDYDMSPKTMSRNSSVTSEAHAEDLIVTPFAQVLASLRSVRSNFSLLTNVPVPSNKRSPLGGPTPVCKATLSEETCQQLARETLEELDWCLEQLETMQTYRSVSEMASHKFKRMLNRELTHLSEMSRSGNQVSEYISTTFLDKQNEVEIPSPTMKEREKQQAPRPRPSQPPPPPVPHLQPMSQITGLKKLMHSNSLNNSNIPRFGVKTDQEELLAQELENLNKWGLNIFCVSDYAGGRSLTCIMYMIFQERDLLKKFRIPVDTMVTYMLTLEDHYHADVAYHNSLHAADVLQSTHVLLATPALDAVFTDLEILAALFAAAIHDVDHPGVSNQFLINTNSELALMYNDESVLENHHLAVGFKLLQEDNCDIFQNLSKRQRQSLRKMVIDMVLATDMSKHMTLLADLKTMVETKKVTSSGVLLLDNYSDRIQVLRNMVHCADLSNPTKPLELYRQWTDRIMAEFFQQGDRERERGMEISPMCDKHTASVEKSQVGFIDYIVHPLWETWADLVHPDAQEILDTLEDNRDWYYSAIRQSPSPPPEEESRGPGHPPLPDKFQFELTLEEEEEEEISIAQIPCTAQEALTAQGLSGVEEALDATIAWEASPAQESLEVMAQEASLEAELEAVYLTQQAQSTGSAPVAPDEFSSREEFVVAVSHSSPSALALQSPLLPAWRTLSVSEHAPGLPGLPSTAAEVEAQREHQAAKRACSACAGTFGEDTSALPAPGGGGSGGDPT

`COc1ccc(C2CNC(=O)C2)cc1OC1CCCC1` (racemic) [(±)[3H] rolipram]: the “increase in high-affinity binding” value in series [1] (100 mM NaCl and 1 mM MgCl2) is 20 fold. In series [1] (rat forebrain membranes), the Bmax is 19.3 pmol/g rat forebrain.

For `COc1ccc([C@H]2CNC(=O)C2)cc1OC1CCCC1` [(S)-rolipram], the EC50 – broadly, the concentration that produces a half-maximal response – in series [2] turned out to be 1000 nM.

Regarding `CCCCC[C@H](O)/C=C/[C@@H]1[C@H]2C/C(=C/CCCC(=O)O)O[C@H]2C[C@H]1O` [PGI2, prostaglandin I2], the fold induction at 10 µM in series [3] (CHO-K1, 10 min, read-out: increase in basal cAMP content) turned out to be 2. The activation at 10 µM in series [3] (CHO-K1, 10 min, PGI2 alone, read-out: increase in basal cAMP levels) is around 50%.

For `O=[N+]([O-])c1cccc(-c2cc(Cc3ccncc3)cc3cccnc23)c1` [RS 14203], the EC50 in series [3] (CHO-K1, with 10 μM PGI2 (b116 prints 10 FM), read-out: EC50 for elevating cellular cAMP) turned out to be 27 nM; in series [2], 10 nM. Besides, in series [3] (with PGI2, from 0.2 pmol cAMP/10^4 cells), the “cellular cAMP reached” value is 3.6 pmols cAMP/10^4 cells. The IC50 (as a rule, the concentration that gives 50% inhibition) in series [4] (100 nM cAMP substrate, read-out: IC50 for inhibition of soluble PDE IVa activity) was determined as 9 nM; in series [4] (5 mM MgCl2, read-out: IC50, inhibition of soluble rhPDEIVa) it was 140 nM; in series [4] (100 mM MgCl2, read-out: IC50, inhibition of soluble rhPDEIVa), 0.5 nM. In addition, the “effect of increased salt / ionic strength on inhibitory potency (IC50)” value in series [4] (increasing MgCl2 or other salt in assay buffer) is reported as “became more potent; also recorded: salt dependent shift in IC50 from low to high affinity”.

On to `C=C1[C@@H](O)[C@@H]2O[C@]3(CC[C@H](/C=C/[C@@H](C)[C@@H]4CC(C)=C[C@@]5(O[C@H](C[C@@](C)(O)C(=O)O)CC[C@H]5O)O4)O3)CC[C@H]2O[C@@H]1[C@@H](O)C[C@H](C)[C@H]1O[C@@]2(CCCCO2)CC[C@H]1C` [okadaic acid], for which the “effect of preincubation on sensitivity of the enzyme to inhibitors” value in series [3] and in series [5] was “no effect on the sensitivity of the enzyme to inhibitors” in each case.

`CO[C@H]([C@H](O)CC(=O)[C@@H](C)[C@@H](O)CC[C@@H](C)[C@@H]1O[C@]2(CC[C@@H](C)[C@H](CC[C@H](C)C(C)=O)O2)CC[C@@H]1C)[C@H](OC(=O)C[C@@H](O)C1=C(C)C(=O)OC1=O)C(C)C` [tautomycin]: the “effect of preincubation on sensitivity of the enzyme to inhibitors” value in series [3] and in series [5] was “no effect on the sensitivity of the enzyme to inhibitors” each time.

B1: PDE IVa: recombinant full-length human PDE IVa enzyme stably expressed in CHO-K1 cells (protein, UniProt P27815 1-886, looked up)
chain: MEPPTVPSERSLSLSLPGPREGQATLKPPPQHLWRQPRTPIRIQQRGYSDSAERAERERQPHRPIERADAMDTSDRPGLRTTRMSWPSSFHGTGTGSGGAGGGSSRRFEAENGPTPSPGRSPLDSQASPGLVLHAGAATSQRRESFLYRSDSDYDMSPKTMSRNSSVTSEAHAEDLIVTPFAQVLASLRSVRSNFSLLTNVPVPSNKRSPLGGPTPVCKATLSEETCQQLARETLEELDWCLEQLETMQTYRSVSEMASHKFKRMLNRELTHLSEMSRSGNQVSEYISTTFLDKQNEVEIPSPTMKEREKQQAPRPRPSQPPPPPVPHLQPMSQITGLKKLMHSNSLNNSNIPRFGVKTDQEELLAQELENLNKWGLNIFCVSDYAGGRSLTCIMYMIFQERDLLKKFRIPVDTMVTYMLTLEDHYHADVAYHNSLHAADVLQSTHVLLATPALDAVFTDLEILAALFAAAIHDVDHPGVSNQFLINTNSELALMYNDESVLENHHLAVGFKLLQEDNCDIFQNLSKRQRQSLRKMVIDMVLATDMSKHMTLLADLKTMVETKKVTSSGVLLLDNYSDRIQVLRNMVHCADLSNPTKPLELYRQWTDRIMAEFFQQGDRERERGMEISPMCDKHTASVEKSQVGFIDYIVHPLWETWADLVHPDAQEILDTLEDNRDWYYSAIRQSPSPPPEEESRGPGHPPLPDKFQFELTLEEEEEEEISMAQIPCTAQEALTAQGLSGVEEALDATIAWEASPAQESLEVMAQEASLEAELEAVYLTQQAQSTGSAPVAPDEFSSREEFVVAVSHSSPSALALQSPLLPAWRTLSVSEHAPGLPGLPSTAAEVEAQREHQAAKRACSACAGTFGEDTSALPAPGGGGSGGDPT
modifications: full-length
notes: recombinant full-length human PDE IVa enzyme stably expressed in CHO-K1 cells
B1: the Vmax in series [6] (soluble PDE IVa from CHO-K1 cells) was 19.5 nM cAMP hydrolyzed/mg. protein per min. Also, the Km (commonly the substrate concentration at which the rate is half of its maximum) in series [6] (soluble PDE IVa from CHO-K1 cells, read-out: Km of the enzyme for cAMP as a substrate) was 3.5 µM.

B2: FLAG PDE IVA: purified full-length epitope FLAG PDE IVA enzyme (protein, UniProt P27815 1-886, looked up)
chain: B1 chain
modifications: full-length FLAG epitope tag
As for B2, the Vmax in series [6] (150 mM KCl, 0 mg/ml HSA) is given as 9.7 ± 0.2 μm/mg/min; in series [6] (150 mM KCl, 3 mg/ml HSA) it was 4.8 ± 0 μm/mg/min. Moreover, the Km in series [6] (150 mM KCl, 3 mg/ml HSA, read-out: Km) came out at 4.8 ± 0.1 µM.
